Test results: patent US4562176A, “Method and composition for treating cancer” (priority 1985, dated 1985)
Converted amounts (≈) assume the structure as drawn. Numbered stars: 1 amine (or outer) side, 2 acyl side, 3 side chain; on linkers, the order of the positions; unused ones are H or OH. Bridge positions count the residues as written; N and C are the ends. Square brackets hold non-standard residues; d marks the D form. Peptide text beside a SMILES is read from it. I, II: the chains in the order shown. Actinocin(9to1) = Cc1c2oc3c(C)ccc(C(=O)[*:1])c3nc-2c(C(=O)[*:2])c(N)c1=O; NMeV = CN[C@H](C(=O)O)C(C)C; Sar = CNCC(=O)O

Key:
DNA = assay: DNA-drug binding by difference spectral (absorption and CD) techniques; conditions: for Diff. CD Spectra -Δ[θ]max (nm): DNA-bound vs combined individual spectra; for Diff. CD Spectra -Δ[θ]max (nm) / Diff. Absorption Spectra -Δεmax (nm): 340-600 nm, wavelength in brackets, phosphate buffer pH 7.0; for Diff. Absorption Spectra -Δεmax (nm): free minus DNA-bound spectrum
Excerpt: ^b Diff. Absorption Spectra is the calculated absorption spectra
obtained by subtracting the spectrum of the DNAbound analogue from the
spectrum of the free analogue, measured at 340-600 nm.
^c Diff. CD Spectra is the calculated CD Spectra obtained as the
difference of the DNAbound from the combined individual spectra of
analogues and DNA at 340-600 nm.
(§1) Medium: 0.01 M phosphate containing 10^-4 EDTA, buffer pH 7.0.
DNA-DRUG BINDING BY DIFFERENCE SPECTRAL AND THERMAL DEVATURATION OF DNA (ΔTm) TECHNIQUES
These experiments were performed according to the methods described by Sengupta et al., Cancer Chemother. Rep., 1974, 58, p. 35, Sengupta et al, J. Med. Chem., 1981, 24, p. 1052 and Sengupta et al, 1983, 26, p. 448, Sengupta et al, 1978, Biochem. Biophys Acta, 521, p. 89.

purified calfthymus DNA = assay: Thermal denaturation of DNA (ΔTm); assay type: binding, calf; conditions: 0.01 M phosphate, EDTA, buffer pH 7.0
Description: ^a ΔTm = Tm of DNAdrug complex minut Tm of
purified calfthymus DNA.
as §1
Melting points were determined on a Thomas-Hoover melting point apparatus at a heating rate of 2° C./min. Dry column chromatography was accomplished with silicic acid powder (Bio-Sil A 100-200 mesh, Bio-Rad Laboratories, Inc.) or acid alumina (Woelm grade 1). Thin layer chromatography was performed on silica gel plates (Brinkmann Instrument, Inc.). For oxazinone analogues (2b), the silica gel plates were exposed to the vapor of conc. HCL in an air-tight container for 20 min before application of the compound for TLC. This procedure helped to prevent the streaking of the compounds in the chromatogram. Solvent systems were (A) EtOAc-acetone (2:1); (B) dry t-BuOH-C6 H6 --C6 H5 N (85:12.5:2.5); (C) Cifferri, the organic phase of the mixture EtOAc-MeOH-H2 O (20:L:20). High performance-liquid chromatography was carried out on a Varian Model 5020 gradient liquid chromatograph equipped with CD-111L chromatography data system and fitted with Varian reversed-phase C18 column with isocratic solvent systems, CH3 CN-5 mM NH4 OAc buffer, pH 6.4 (68:32), flow rate 15 mL/mn, with UV-visible variable and fixed wavelength dual detectors at 254,440, 500 and 252 nm. Spectra were determined on the following instruments: IR spectra were obtained on the Perkin-Elmer Model 237 Infra Cord with KBr micropellets or in CHCl3 solutions; UV-visible spectra were obtained on a Gilford 250 spectrophotometer, which, with the addition of a baseline reference compensator (Analog Multiplexer 5053) and thermoprogrammer, auto four cell programmer and thermoelectric cell holder 2577, were used to obtain thermal denaturation curves; specific rotational values were determined in CHCl3 solutions using a Cary 60 spectropolarimeter; NMR spectra were obtained in a JOEL FQ -90 MHz spectrometer equipped with Fourier transform. All elemental analyses were within +0.4%, unless it is specified otherwise.
DNA-DRUG BINDING BY DIFFERENCE SPECTRAL AND THERMAL DEVATURATION OF DNA (ΔTm) TECHNIQUES […]

[1] = tested on: P388 lymphocytic leukemia; assay: In vivo P388 assay; parameters: species or system mice; conditions: ip days 1,5,9; for % ILS (percent increase in life span) / MST (median survival time) / Cure (over 60 day survivors): at optimum dose; for % ILS (percent increase in life span) / MST (median survival time): CDF1 male mice; for MST (median survival time): control MST 11.0 days; for Cure (over 60 day survivors): group of 7 CDF1 male mice, average of 2 experiments
Description: ^c 10^6 P388 cells implanted intraperitoneally on day 0 into a
group of 7 CDF1 male mice. Drugs were administered, also ip, in 10%
Me2 SO--saline on days 1,5,9. Test solutions were kept at 0-4.degree
C., protected from light.
These analogues were tested for antitumor activity against P388 lymphocytic leukemia in male CDF1 hybrid mice (Table 6). The tumor was implanted intraperitoneally (ip) with 10^6 cells. The drugs were administered once daily on days 1, 5, 9 beginning 1 day after implantation.

[2] = Solubility in distilled water
Description: SOLUBILITY OF ACTINOMYCIN D AND ANALOGUES 2b, 3b AND 4b IN DISTILLED WATER AT 20° C. AND 4° C.

[3] = tested on: human lymphoblastic leukemia cells (CCRF-CEM); assay: In vitro growth inhibition of CCRF-CEM cells; assay type: cell-based; conditions: for In Vitro (CCRF-CEM) ID50: cells in log-phase growth, suspension culture, final growth medium 5% Me2SO
Description: ^b Human lymphoblastic luekemia cells in logphase growth and in a
suspension culture. Compounds were dissolved in Me2 SO medium, final
growth medium contained 5% Me2 SO.
In vitro growth inhibition of the analogues were assayed against human lymphoblastic leukemia cells (CCRF-CEM) in log phase. The most cyctoxic are AMD-OZN analogues 2b and 2g and AMD-OZL analogues 4a-4c. However, compared to AMD, they are several fold less cytotoxic to CEM-cells in vitro.

mouse leukemia cells = conditions: known before this invention; cited from earlier work

Cc1c2oc3c(C)ccc(C(=O)N[C@@H]4C(=O)N[C@H](C(C)C)C(=O)N5CCC[C@H]5C(=O)N(C)CC(=O)N(C)[C@@H](C(C)C)C(=O)O[C@@H]4C)c3nc-2c(C(=O)N[C@@H]2C(=O)N[C@H](C(C)C)C(=O)N3CCC[C@H]3C(=O)N(C)CC(=O)N(C)[C@@H](C(C)C)C(=O)O[C@@H]2C)c(N)c1=O [Compound 1a, Actinomycin D, reference compound] (I: T[dV]P[Sar][NMeV] / II: T[dV]P[Sar][NMeV]; ester I:1-I:C, II:1-II:C; linker I:N-II:N via Actinocin(9to1))
Diff. CD Spectra -Δ[θ]max (nm) (DNA): 40,000(390)
DNA binding (in words) (DNA; difference spectral or ΔTm techniques): binds to DNA strongly by intercalation
Diff. Absorption Spectra -Δεmax (nm) (DNA): 8,240(425)
ΔTm (Tm of DNA-drug complex minus Tm of DNA) (purified calfthymus DNA): 7.1 ± 0.15 °C
% ILS (percent increase in life span) [1]: 136%
MST (median survival time) [1]: 26 days
Cure (over 60 day survivors) [1]: 1/7
solubility in distilled water ([2]; 4° C.): 20.5 mg/mL (≈ 16.3 mM)
solubility in distilled water ([2]; 20° C.): 0.9 mg/mL (≈ 0.717 mM)
In Vitro (CCRF-CEM) ID50 [3]: 40 ng/mL

Cc1c2oc3c(C)c(O)cc(C(=O)N[C@@H]4C(=O)N[C@H](C(C)C)C(=O)N5CCC[C@H]5C(=O)N(C)CC(=O)N(C)[C@@H](C(C)C)C(=O)O[C@@H]4C)c3nc-2c(C(=O)N[C@@H]2C(=O)N[C@H](C(C)C)C(=O)N3CCC[C@H]3C(=O)N(C)CC(=O)N(C)[C@@H](C(C)C)C(=O)O[C@@H]2C)c(N)c1=O [Compound 1b, 7-HYDROXY ACTINOMYCIN D]
Diff. CD Spectra -Δ[θ]max (nm) (DNA): 31,000(485)
Diff. Absorption Spectra -Δεmax (nm) (DNA): 9,380(550)
ΔTm (Tm of DNA-drug complex minus Tm of DNA) (purified calfthymus DNA): 6.7 ± 0.15 °C

Cc1ccc(C(=O)N[C@@H]2C(=O)N[C@H](C(C)C)C(=O)N3CCC[C@H]3C(=O)N(C)CC(=O)N(C)[C@@H](C(C)C)C(=O)O[C@@H]2C)c2c1Oc1c(c(C(=O)N[C@@H]3C(=O)N[C@H](C(C)C)C(=O)N4CCC[C@H]4C(=O)N(C)CC(=O)N(C)[C@@H](C(C)C)C(=O)O[C@@H]3C)c3nc(-c4ccccc4)c(=O)oc3c1C)N2 [Compound 2b]
antitumor activity against P388 (in words) ([1]; CDF1 mice): most active
% ILS (percent increase in life span) [1]: 309%
MST (median survival time) [1]: 45 days
Cure (over 60 day survivors) [1]: 2/7
cytotoxicity to CEM cells (in words) ([3]; CCRF-CEM in log phase): most cyctoxic
In Vitro (CCRF-CEM) ID50 [3]: 440 ng/mL
activity against human cancer cells (in words) ([3]; human cancer cells): highest human antitumor effects
activity against mouse leukemia cells (mouse leukemia cells): active

Cc1nc2c(C(=O)N[C@@H]3C(=O)N[C@H](C(C)C)C(=O)N4CCC[C@H]4C(=O)N(C)CC(=O)N(C)[C@@H](C(C)C)C(=O)O[C@@H]3C)c3c(c(C)c2o1)Oc1c(C)ccc(C(=O)N[C@@H]2C(=O)N[C@H](C(C)C)C(=O)N4CCC[C@H]4C(=O)N(C)CC(=O)N(C)[C@@H](C(C)C)C(=O)O[C@@H]2C)c1N3 [Compound 3a]
Diff. CD Spectra -Δ[θ]max (nm) (DNA): nil
Diff. Absorption Spectra -Δεmax (nm) (DNA): nil
ΔTm (Tm of DNA-drug complex minus Tm of DNA) (purified calfthymus DNA): 0.0 ± 0.30 °C
% ILS (percent increase in life span) [1]: 91%
MST (median survival time) [1]: 21 days
Cure (over 60 day survivors) [1]: 0/7
In Vitro (CCRF-CEM) ID50 [3]: 2900 ng/mL
